Reference: patent publication US12240862B2, “Inhibitors of peptidylarginine deiminases” (Gilead Sciences, Inc., priority 2020, dated 2025)

biological target: T1, human PAD4 (Homo sapiens, UniProt Q9UM07); assay: In vitro PAD4 BAEE biochemical assay; conditions: human PAD4, BAEE substrate; 5 nM PAD4, 2 mM calcium chloride, 3 mM BAEE; geometric mean of multiple experiments
T1 construct: human PAD4 (NM_012387), A2P663, was PCR amplified; His-SUMO (N, cleaved yes); made in house; host or cells: E. coli BL21(DE3)
T1 sequence (Q9UM07 2-663): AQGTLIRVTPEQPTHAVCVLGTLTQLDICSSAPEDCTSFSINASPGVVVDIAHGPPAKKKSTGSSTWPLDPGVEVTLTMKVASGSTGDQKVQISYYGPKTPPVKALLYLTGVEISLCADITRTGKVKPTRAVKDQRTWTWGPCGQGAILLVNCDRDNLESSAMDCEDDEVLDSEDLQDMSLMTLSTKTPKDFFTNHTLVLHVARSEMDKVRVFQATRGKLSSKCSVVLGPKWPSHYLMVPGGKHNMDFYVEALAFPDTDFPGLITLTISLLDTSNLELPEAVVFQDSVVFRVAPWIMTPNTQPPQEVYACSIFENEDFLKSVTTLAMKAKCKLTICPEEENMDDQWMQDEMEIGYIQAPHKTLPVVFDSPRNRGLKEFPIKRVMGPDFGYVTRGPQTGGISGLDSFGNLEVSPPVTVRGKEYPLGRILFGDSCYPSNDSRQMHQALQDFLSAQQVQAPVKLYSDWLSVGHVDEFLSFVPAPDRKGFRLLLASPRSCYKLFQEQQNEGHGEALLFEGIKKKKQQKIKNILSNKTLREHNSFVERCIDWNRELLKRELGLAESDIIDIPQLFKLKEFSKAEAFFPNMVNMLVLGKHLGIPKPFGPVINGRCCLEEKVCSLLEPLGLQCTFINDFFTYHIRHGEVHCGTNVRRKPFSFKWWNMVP
How it was run: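 Ammonia generated from BAEE serves as the readout, measured by o-phthalaldehyde after EDTA termination. Final conditions: 5 nM human PAD4 (SUMO tag cleaved), 2 mM CaCl2, 3 mM BAEE, pH 7.6 MOPS buffer, 25 °C for 2 h following a 30-min compound preincubation.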

| SMILES | IC50 |
| --- | --- |
| COc1cc(C(=O)N2[C@H]3CC[C@@H]2[C@H](N)C3)cc2nc(-c3cc4ccc(N(C)S(C)(=O)=O)nc4n3CC3CC3)c(C)n12 [Example 476, ~{N}-[2-[7-[(1~{R}, 2~{R},4~{S})-2-amino-7-azabicyclo[2.2.1]heptane-7-carbonyl]-5-methoxy-3-methylimidazo[1,2-a]pyridin-2-yl]-1-(cyclopropylmethyl)pyrrolo[2,3-b]pyridin-6-yl]-~{N}-methylmethanesulfonamide] | 46.8 nM |
| COc1cc(C(=O)N2[C@H]3CC[C@@H]2[C@H](N)C3)cc2nc(-c3cc4ccc(N(C5CCC5)S(C)(=O)=O)nc4n3CC3CC3)c(C)n12 [Example 477, ~{N}-[2-[7-[(1~{R}, 2~{R},4~{S})-2-amino-7-azabicyclo[2.2.1]heptane-7-carbonyl]-5-methoxy-3-methylimidazo[1,2-a]pyridin-2-yl]-1-(cyclopropylmethyl)pyrrolo [2,3-b]pyridin-6-yl]-~{N}-cyclobutylmethane-sulfonamide] | 100 nM |
| COc1cc(C(=O)N2CCC[C@@H](N)C2)cc2nc(-c3cc4ccc(N(C(F)F)S(=O)(=O)C5COC5)nc4n3CC3CC3)c(C)n12 [Example 478, ~{N}-[2-[7-[(3~{R})-3-aminopiperidine-1-carbonyl]-5-methoxy-3-methylimidazo[1,2-a]pyridin-2-yl]-1-(cyclopropylmethyl)pyrrolo [2,3-b]pyridin-6-yl]-~{N}-(difluoromethyl)oxetane-3-sulfonamide] | 236 nM |
| COc1cc(C(=O)N2CCC[C@@H](N)[C@H]2C)cc2nc(-c3cc4ccc(N(C5CC5)S(C)(=O)=O)nc4n3CC3CC3)c(C)n12 [Example 479, ~{N}-[2-[7-[(2~{R}, 3~{R})-3-amino-2-methylpiperidine-1-carbonyl]-5-methoxy-3-methylimidazo[1,2-a]pyridin-2-yl]-1-(cyclopropylmethyl)pyrrolo [2,3-b]pyridin-6-yl]-~{N}-cyclopropylmethane-sulfonamide] | 181 nM |
| COc1cc(C(=O)N2CCC[C@@H](N)[C@H]2C)cc2nc(-c3cc4ccc(N(C)S(C)(=O)=O)nc4n3CC3CC3)c(C)n12 [Example 480, ~{N}-[2-[7-[(2~{R}, 3~{R})-3-amino-2-methylpiperidine-1-carbonyl]-5-methoxy-3-methylimidazo[1,2-a]pyridin-2-yl]-1-(cyclopropylmethyl)pyrrolo [2,3-b]pyridin-6-yl]-~{N}-methylmethanesulfonamide] | 166 nM |
| COc1cc(C(=O)N2C[C@H](N)CC[C@@H]2C)cc2nc(-c3cc4ccc(N(C)S(C)(=O)=O)nc4n3CC3CC3)c(C)n12 [Example 481, N-(2-(7-((2S,5R)-5-amino-2-methylpiperidine-1-carbonyl)-5-methoxy-3-methylimidazo[1,2-a]pyridin-2-yl)-1-(cyclopropylmethyl)-1H-pyrrolo[2,3-b]pyridin-6-yl)-N-methylmethanesulfonamide] | 152 nM |
| COc1cc(C(=O)N2CCC[C@@H](N)C2)cc2nc(-c3cc4ccc(N(C)S(C)(=O)=O)nc4n3CC3CC3)c(C)n12 [Example 482, ~{N}-[2-[7-[(3~{R})-3-aminopiperidine-1-carbonyl]-5-methoxy-3-methylimidazo[1,2-a]pyridin-2-yl]-1-(cyclopropylmethyl)pyrrolo [2,3-b]pyridin-6-yl]-~{N}-methylmethanesulfonamide] | 171 nM |
| CCN(c1ccc2cc(-c3nc4cc(C(=O)N5CCC[C@@H](N)[C@H]5C)cc(OC)n4c3C)n(CC3CC3)c2n1)S(C)(=O)=O [Example 483, ~{N}-[2-[7-[(2~{R}, 3~{R})-3-amino-2-methylpiperidine-1-carbonyl]-5-methoxy-3-methylimidazo[1,2-a]pyridin-2-yl]-1-(cyclopropylmethyl)pyrrolo [2,3-b]pyridin-6-yl]-~{N}-ethylmethanesulfonamide] | 128 nM |
| CCN(c1ccc2cc(-c3nc4cc(C(=O)N5CCC[C@@H](N)C5)cc(OC)n4c3C)n(CC3CC3)c2n1)S(C)(=O)=O [Example 484, ~{N}-[2-[7-[(3~{R})-3-aminopiperidine-1-carbonyl]-5-methoxy-3-methylimidazo[1,2-a]pyridin-2-yl]-1-(cyclopropylmethyl)pyrrolo [2,3-b]pyridin-6-yl]-~{N}-ethylmethanesulfonamide] | 145 nM |
| COc1cc(C(=O)N2[C@H]3CC[C@@H]2[C@H](N)C3)cc2nc(-c3cc4ccc([C@@H](C)NC(=O)C(C)(C)C)nc4n3CC34CC(C3)C4)c(C3CC3)n12 [Example 486, N—((R)-1-(2-(7-((1R,2R,4S)-2-amino-7-azabicyclo[2.2.1]heptane-7-carbonyl)-3-cyclopropyl-5-methoxyimidazo[1,2-a]pyridin-2-yl)-1-(bicyclo[1.1.1]pentan-1-ylmethyl)-1H-pyrrolo[2,3-b]pyridin-6-yl)ethyl)pivalamide] | 666 nM |
| COc1cc(C(=O)N2[C@H]3CC[C@@H]2[C@H](N)C3)cc2nc(-c3cc4ccc([C@@H](C)NC(=O)N5CCC5)nc4n3CC34CC(C3)C4)c(C)n12 [Example 488] | 86.8 nM |
| COc1cc(C(=O)N2[C@H]3CC[C@@H]2[C@H](N)C3)cc2nc(-c3cc4ccc([C@@H](C)NC(=O)c5ccccc5)nc4n3CC34CC(C3)C4)c(C)n12 [Example 489, ~{N}-[(1~{R})-1-[2-[7-[(1~{R},2~{R},4~{S})-2-amino-7-azabicyclo[2.2.1]heptane-7-carbonyl]-5-methoxy-3-methylimidazo[1,2-a]pyridin-2-yl]-1-(1-bicyclo [1.1.1]pentanylmethyl)pyrrolo[2,3-b]pyridin-6-yl]ethyl]benzamide] | 177 nM |
| COc1cc(C(=O)N2[C@H]3CC[C@@H]2[C@H](N)C3)cc2nc(-c3cc4ccc(N(C)S(C)(=O)=O)nc4n3CC3CC3C)c(C)n12 (stereo partly drawn) [Example 490, ~{N}-[2-[7-[(1~{R},2~{R}, 4~{S})-2-amino-7-azabicyclo[2.2.1]heptane-7-carbonyl]-5-methoxy-3-methylimidazo[1,2-a]pyridin-2-yl]-1-[(2-methylcyclopropyl)methyl]pyrrolo[2,3-b]pyridin-6-yl]-~{N}-methylmethanesulfonamide] | 75.4 nM |

Results, then the molecule that gave them:

| IC50 | SMILES |
| --- | --- |
| 32000 nM | CCOC(=O)N(C)c1ccc2cc(-c3nc4cc(C(=O)N5[C@H]6CC[C@@H]5[C@@H](N)CC6)cc(OC)n4c3C)n(CC3CC3)c2n1 [Example 491, ethyl~{N}-[2-[7-[(1~{R}, 2~{S},5~{R})-2-amino-8-azabicyclo[3.2.1]octane-8-carbonyl]-5-methoxy-3-methylimidazo[1,2-a]pyridin-2-yl]-1-(cyclopropylmethyl)pyrrolo [2,3-b]pyridin-6-yl]-~{N}-methylcarbamate] |
| 2500 nM | COc1cc(C(=O)N2C[C@H]3CC[C@@H]2[C@@H]3N)cc2nc(-c3cc4ccc(N(C)S(C)(=O)=O)nc4n3C)c(C)n12 [Example 493, N-[2-[7-[(1R,4R, 7R)-7-amino-2-azabicyclo [2.2.1]heptane-2-carbonyl]-5-methoxy-3-methyl-imidazo[1,2-a]pyridin-2-yl]-1-methyl-pyrrolo[2,3-b]pyridin-6-yl]-N-methyl-methanesulfonamide] |
| 276 nM | COc1cc(C(=O)N2CCC[C@@H](N)C2)cc2nc(-c3cc4ccc(N(C(F)F)S(C)(=O)=O)nc4n3CC(F)(F)F)c(C)n12 [Example 494, ~{N}-[2-[7-[(3~{R})-3-aminopiperidine-1-carbonyl]-5-methoxy-3-methylimidazo[1,2-a]pyridin-2-yl]-1-(2,2,2-trifluoroethyl)pyrrolo [2,3-b]pyridin-6-yl]-~{N}-(difluoromethyl) methanesulfonamide] |
| 202 nM | COc1cc(C(=O)N2[C@@H]3CC[C@@H](N)[C@H]2CC3)cc2nc(-c3cc4ccc(N(C(F)F)S(C)(=O)=O)nc4n3CC(F)(F)F)c(C)n12 [Example 495, ~{N}-[2-[7-[(1~{R},2~{R}, 5~{R})-2-amino-8-azabicyclo[3.2.1]octane-8-carbonyl]-5-methoxy-3-methylimidazo[1,2-a]pyridin-2-yl]-1-(2,2,2-trifluoroethyl)pyrrolo [2,3-b]pyridin-6-yl]-~{N}-(difluoromethyl) methanesulfonamide] |
| 418 nM | COc1cc(C(=O)N2C[C@H](N)CC[C@@H]2C)cc2nc(-c3cc4ccc(N(C(F)F)S(C)(=O)=O)nc4n3CC34CC(C3)C4)c(C)n12 [Example 496, ~{N}-[2-[7-[(2~{S}, 5~{R})-5-amino-2-methylpiperidine-1-carbonyl]-5-methoxy-3-methylimidazo[1,2-a]pyridin-2-yl]-1-(1-bicyclo [1.1.1]pentanylmethyl)pyrrolo [2,3-b]pyridin-6-yl]-~{N}-(difluoromethyl) methanesulfonamide] |
| 1230 nM | CCc1ccc2cc(-c3nc4cc(C(=O)N5[C@H]6CC[C@@H]5[C@H](N)C6)cc(OC)n4c3C)n(CCO)c2n1 [Example 497, [(1~{R},2~{R},4~{S})-2-amino-7-azabicyclo [2.2.1]heptan-7-yl]-[2-[6-ethyl-1-(2-hydroxyethyl)pyrrolo[2,3-b]pyridin-2-yl]-5-methoxy-3-methylimidazo [1,2-a]pyridin-7-yl]methanone] |
| 673 nM | CCc1ccc2cc(-c3nc4cc(C(=O)N5[C@H]6CC[C@@H]5[C@H](N)C6)cc(OC)n4c3C)n(CCS(C)(=O)=O)c2n1 [Example 498, [(1~{R},2~{R},4~{S})-2-amino-7-azabicyclo [2.2.1]heptan-7-yl]-[2-[6-ethyl-1-(2-methylsulfonylethyl)pyrrolo[2,3-b]pyridin-2-yl]-5-methoxy-3-methylimidazo[1,2-a]pyridin-7-yl]methanone] |
| 481 nM | CCc1ccc2cc(-c3nc4cc(C(=O)N5[C@H]6CC[C@@H]5[C@H](N)C6)cc(OC)n4c3C)n(CCCO)c2n1 [Example 499, [(1~{R},2~{R},4~{S})-2-amino-7-azabicyclo [2.2.1]heptan-7-yl]-[2-[6-ethyl-1-(3-hydroxypropyl)pyrrolo[2,3-b]pyridin-2-yl]-5-methoxy-3-methylimidazo[1,2-a]pyridin-7-yl]methanone] |
